US8530470B2, “Chromenone derivatives” (Astrazeneca AB, priority 2011, dated 2013)
Like-named read-outs stand apart in the source and are kept apart here.

How the values were obtained:
PI3Kβ = PI3Kβ (Homo sapiens, UniProt P42338); assay: In vitro enzyme inhibition assay (Kinase Glo), PI3Kβ; type: biochemical
Procedure: (§1) (a) In Vitro Enzyme Inhibition Assay
(§2) The inhibition of PI3Kβ, PI3Kα, PI3Kγ and PI3Kδ was evaluated in a Kinase Glo based enzyme activity assay using human recombinant enzymes. The assay measures depletion of ATP after incubation with enzyme, PIP2 and ATP plus compound. ATP at the end of the reaction is detected by addition of Kinase Glo reagent, in this the Ultra Glo™ luciferase (Promega) uses the ATP as a substrate to catalyze the mono-oxygenation of luciferin and the generation of light. A direct relationship exists between the luminescence measured with the Kinase-Glo Plus Reagent and the amount of ATP remaining in a completed kinase reaction and luminescence is inversely related to kinase activity. Twelve different compound concentrations were tested and raw data from the inhibition of PI3Kβ, PI3Kα, PI3Kγ and PI3Kδ was plotted versus inhibitor concentration.
(§3) Compounds in 100% DMSO were added to assay plates by acoustic dispensing. PI3β was added in a Tris buffer (50 mM Tris pH7.4, 0.05% CHAPS, 2.1 mM DTT, and 10 mM MgCl2) and allowed to preincubate with compound for 20 min prior to addition of substrate solution containing PIP2 and ATP. The enzyme reaction was stopped after 80 min by the addition of Kinase Glo detection solution. […] The final concentration of DMSO, ATP and PIP2 in the assay were, 1%, 8 μM, and 80 μM respectively.
(§4) IC50 values were calculated using a log curve fitting to a non-linear regression package, fitting raw data to inhibitor concentration.

PI3Kδ = PI3Kδ (Homo sapiens, UniProt O00329); assay: In vitro enzyme inhibition assay (Kinase Glo), PI3Kδ; type: biochemical; conditions: Test (a)
Procedure: as §1, §2, §3, §4

[1] = tested on: phospho AKT (ser473) in MDA-MB-468 cells; assay: Detection of phospho AKT (ser473) in MDA-MB-468 cells; type: cell-based; conditions: Homo sapiens, Test (b), 2 hours incubation, approximate value, read-out: IC50 versus cellular phospho AKT (ser473) in MDA-MB-468 cells
Procedure: (b) Protocol for Detection of Phospho AKT (ser473) in MDA-MB-468 Cells
MDA-MB-468 cells (human breast adenocarcinoma ATCC HTB 132) are seeded into Greiner 384 well black flat-bottomed plates by automated cell culture robot (Selec T). Cells can also be maintained manually and seeded into plates using multidrop or Wellmate. Cells seeded at 1500 cell/well in 40 μl of DMEN containing 10% FCS and 1% glutamine. Cell plates are incubated for 18 hours in a 37° C. incubator.
Compounds are dosed onto cells using an Echo acoustic dispenser, which dispenses nl quantities of compound or DMSO. Compounds are dosed in a 12 point concentration range from 30 μM top dose, 28 compounds are dosed on one plate. There are 17 DMSO only positive control wells per plate, and 16 negative control well which have been dosed with a concentration of reference compound that will knockout the pAKT signal.
Plates are incubated at 37° C. for 2 hours, cells are the fixed by the addition of 10 μl of a 3.7% Formaldehyde solution in a fume cupboard using a Wellmate.
After 30 min to allow for fixation, the fixative and media are removed and the plates washed with Proclin PBS/A using Tecan PW384 plate washer in a fume cupboard. Wells are blocked and permeabilised with the addition of 40 μl of PBS containing 0.5% Tween20 and 1% marvel using a Wellmate and incubated for 60 min at room temperature.
Permeabilisation and blocking buffer removed using Tecan PW384 plate washer, then 20 μl primary antibody solution added using a Wellmate. The primary antibody solution is a 1:500 dilution of Rabbit anti-phospho AKT Ser 473 (Cell signalling technologies catalogue number #3787) in PBS/T containing 1% marvel (dried milk powder) and incubated overnight at 4° C.
Plates are washed using a Tecan PW384 plate washer three times with Phosphate Buffered Saline+0.05% (v/v) Polysorbate20 and Proclin300 (Supelco). 20 μl of secondary antibody solution is then added to each well using a Wellmate and incubated for 1 hour at Room Temp. The secondary antibody solution is a 1:1000 dilution of Alexa Fluor 488 anti-Rabbit (Molecular Probes cat no A11008) diluted in Phosphate Buffered Saline+0.05% (v/v) Polysorbate20 containing 1% marvel. Plates are washed three times as before then […] added to each well and plates sealed with black plate sealer.
The plates are read on an Acumen reader as soon as possible. Using this system IC50 values can be generated and quality of plates determined by control wells. Reference compounds are run each time to monitor assay performance.

[2] = tested on: phosphoinositide (PI) 3-kinase; assay: Comparison of activity of enantiomers (PI 3-kinase inhibitory activity); type: biochemical; conditions: (+) enantiomer of Example 1.03 compared with the other enantiomer
Excerpt: The synthesis of optically active forms may be carried out by standard techniques of organic chemistry well known in the art, for example by synthesis from optically active starting materials or by resolution of a racemic form. Similarly, the above-mentioned activity may be evaluated using the standard laboratory techniques.
For the avoidance of doubt, the chiral centre in question is the carbon atom at the 2-position of the central pyrrolidine ring that is linked to the chromenone bicyclic ring.

[3] = tested on: phospho AKT (ser473) in Jeko cells; assay: Detection of phospho AKT (ser473) in Jeko cells; type: cell-based; conditions: Homo sapiens; Test (e); anti-IgM stimulated; approximate value; read-out: IC50 versus cellular phospho AKT (ser473) in Jeko cells
Procedure: (e) Protocol for Detection of Phospho AKT (ser473) in Jeko Cells
Compounds at ×10 final concentration in 10 μl of 1% (v/v) DMSO are added to the wells of a Greiner V-bottomed 96 well plate. Compounds are dosed in a 10-point concentration range from 1 μM top dose, 8 compounds are dosed on one plate. There are 8 DMSO positive control wells per plate which have been dosed with vehicle and anti-IgM, and 8 negative control wells which have been dosed with vehicle and assay buffer. Final vehicle concentration is 0.1% DMSO. A reference PI3Kδ selective compound is included in each run. Jeko B cells (human mantle cell lymphoma, ATCC CRL-3006) are seeded into the Greiner 96 well V-bottomed plates containing compounds. Cells are seeded at 100,000 cell/well in 70 μl of RPMI containing 1% glutamine.
Cell plates are incubated for 1 hour in a 37° C. incubator. After this compound pre-incubation time, anti-IgM (F(ab′)2 fragment goat anti-human IgM, Stratech 109-006-129) is added to the plates at ×5 final concentration in 20 μl of assay buffer (RPMI containing 1% glutamine). Final anti-IgM concentration is 0.06 μg/ml or an equivalent EC90 dose. Plates are incubated at 37° C. for 10 min, subsequently plates are immediately placed on ice and centrifuged at […] for 4 min. On ice, supernatants are carefully removed with a manual pipette and 40 μl lysis buffer added. […]

[4] = Test (a), approximate value, read-out: IC50 versus PI3Kβ
[5] = approximate value, read-out: IC50 versus PI3Kδ
[6] = human recombinant enzyme, Table A, read-out: PI3Kδ inhibition, IC50
[7] = Test (a), human recombinant enzyme, ATP 8 μM, PIP2 80 μM, Table A, read-out: PI3Kβ inhibition, IC50

PI3Kβ, sequence (P42338 whole entry): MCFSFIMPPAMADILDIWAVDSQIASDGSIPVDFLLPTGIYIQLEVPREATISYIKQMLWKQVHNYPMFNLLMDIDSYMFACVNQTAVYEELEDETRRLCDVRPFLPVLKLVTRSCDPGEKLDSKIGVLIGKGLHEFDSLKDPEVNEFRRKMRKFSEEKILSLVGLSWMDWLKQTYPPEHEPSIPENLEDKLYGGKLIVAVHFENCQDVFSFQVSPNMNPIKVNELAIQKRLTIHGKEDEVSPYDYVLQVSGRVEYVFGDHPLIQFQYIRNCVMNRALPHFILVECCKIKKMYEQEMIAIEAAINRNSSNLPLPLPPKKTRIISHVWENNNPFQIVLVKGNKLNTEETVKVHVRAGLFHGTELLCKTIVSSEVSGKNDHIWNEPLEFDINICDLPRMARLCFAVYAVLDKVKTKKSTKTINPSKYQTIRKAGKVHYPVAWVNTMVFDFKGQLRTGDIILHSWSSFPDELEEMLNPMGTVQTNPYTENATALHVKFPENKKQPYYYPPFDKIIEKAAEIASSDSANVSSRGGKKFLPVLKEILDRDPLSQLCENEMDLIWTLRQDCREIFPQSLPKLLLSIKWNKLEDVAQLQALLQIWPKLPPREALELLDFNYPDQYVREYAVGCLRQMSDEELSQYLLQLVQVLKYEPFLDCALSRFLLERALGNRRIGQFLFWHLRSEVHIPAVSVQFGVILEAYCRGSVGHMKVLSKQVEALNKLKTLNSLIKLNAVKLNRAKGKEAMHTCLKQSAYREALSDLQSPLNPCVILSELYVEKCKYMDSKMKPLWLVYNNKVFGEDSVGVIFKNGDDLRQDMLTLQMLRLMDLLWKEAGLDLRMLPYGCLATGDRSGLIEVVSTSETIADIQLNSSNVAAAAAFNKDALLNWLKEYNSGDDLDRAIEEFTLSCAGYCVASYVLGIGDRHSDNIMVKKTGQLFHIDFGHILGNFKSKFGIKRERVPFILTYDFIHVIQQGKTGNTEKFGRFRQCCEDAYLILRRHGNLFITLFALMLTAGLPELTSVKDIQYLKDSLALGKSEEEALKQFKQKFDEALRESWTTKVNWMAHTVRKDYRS
PI3Kβ, sequence (P27986 whole entry partner): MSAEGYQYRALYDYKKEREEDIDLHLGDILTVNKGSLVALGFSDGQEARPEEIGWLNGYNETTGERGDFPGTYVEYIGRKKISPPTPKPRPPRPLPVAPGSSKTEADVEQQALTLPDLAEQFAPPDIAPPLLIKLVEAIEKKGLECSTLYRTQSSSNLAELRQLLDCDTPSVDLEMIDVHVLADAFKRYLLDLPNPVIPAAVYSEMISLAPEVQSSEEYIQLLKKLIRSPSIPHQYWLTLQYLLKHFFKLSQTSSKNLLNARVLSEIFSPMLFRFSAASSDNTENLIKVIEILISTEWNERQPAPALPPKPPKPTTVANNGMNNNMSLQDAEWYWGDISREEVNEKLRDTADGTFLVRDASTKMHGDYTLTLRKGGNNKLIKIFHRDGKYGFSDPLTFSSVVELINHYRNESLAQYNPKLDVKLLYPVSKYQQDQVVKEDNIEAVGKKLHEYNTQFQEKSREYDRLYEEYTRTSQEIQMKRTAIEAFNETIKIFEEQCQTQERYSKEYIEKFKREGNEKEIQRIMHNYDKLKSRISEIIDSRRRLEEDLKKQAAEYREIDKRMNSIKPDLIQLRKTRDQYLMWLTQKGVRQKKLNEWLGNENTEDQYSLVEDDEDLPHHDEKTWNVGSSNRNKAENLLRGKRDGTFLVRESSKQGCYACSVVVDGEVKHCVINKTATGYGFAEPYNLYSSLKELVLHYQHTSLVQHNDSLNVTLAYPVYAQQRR
PI3Kδ, sequence (O00329 whole entry): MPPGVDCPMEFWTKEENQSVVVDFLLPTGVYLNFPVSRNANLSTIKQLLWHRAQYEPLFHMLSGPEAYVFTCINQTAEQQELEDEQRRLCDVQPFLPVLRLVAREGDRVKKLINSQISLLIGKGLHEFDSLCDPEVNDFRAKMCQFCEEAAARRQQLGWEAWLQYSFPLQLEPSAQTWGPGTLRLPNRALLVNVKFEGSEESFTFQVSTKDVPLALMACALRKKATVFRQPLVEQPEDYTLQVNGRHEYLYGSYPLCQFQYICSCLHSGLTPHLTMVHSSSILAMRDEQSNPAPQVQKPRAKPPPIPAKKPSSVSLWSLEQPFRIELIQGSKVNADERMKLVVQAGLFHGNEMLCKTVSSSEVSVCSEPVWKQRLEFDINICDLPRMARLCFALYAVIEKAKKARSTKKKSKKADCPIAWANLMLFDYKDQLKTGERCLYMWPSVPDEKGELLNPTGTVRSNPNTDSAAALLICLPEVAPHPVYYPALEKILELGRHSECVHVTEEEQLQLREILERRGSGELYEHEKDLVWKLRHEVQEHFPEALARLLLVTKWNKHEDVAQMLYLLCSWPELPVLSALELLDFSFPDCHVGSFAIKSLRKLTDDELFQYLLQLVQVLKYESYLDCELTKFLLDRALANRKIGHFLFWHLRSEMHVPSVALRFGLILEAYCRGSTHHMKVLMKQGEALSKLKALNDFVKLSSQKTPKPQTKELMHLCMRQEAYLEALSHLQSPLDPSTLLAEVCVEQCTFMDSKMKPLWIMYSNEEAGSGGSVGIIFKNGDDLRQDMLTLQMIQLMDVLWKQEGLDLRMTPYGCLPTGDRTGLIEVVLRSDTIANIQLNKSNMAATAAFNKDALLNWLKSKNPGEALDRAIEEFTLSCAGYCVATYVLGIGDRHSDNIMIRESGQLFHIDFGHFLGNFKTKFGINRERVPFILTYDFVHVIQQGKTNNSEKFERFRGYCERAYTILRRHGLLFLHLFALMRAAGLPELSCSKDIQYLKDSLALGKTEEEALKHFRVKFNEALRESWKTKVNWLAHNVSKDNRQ
PI3Kδ, sequence (P27986 whole entry partner): as the sequence (P27986 whole entry partner) above

activity relative to the other enantiomer [2]	Compound	IC50 (PI3Kβ; [4]) [nM]	IC50 (PI3Kδ; [5]) [nM]	IC50 [1] [nM]	IC50 (PI3Kβ; read-out: PI3Kβ inhibition, IC50) [nM]	IC50 (PI3Kδ; [6]) [nM]	IC50 (PI3Kβ; [7]) [nM]	IC50 [3] [nM]
weaker activity	O=C(c1cc([C@@H]2CCCN2c2cc(F)cc(F)c2)c2oc(N3CCOCC3)cc(=O)c2c1)N1CCOCC1 [Example 1.03a, 8-[(2S)-1-(3,5-difluorophenyl)pyrrolidin-2-yl]-6-(morpholine-4-carbonyl)-2-morpholino-4H-chromen-4-one]	~198	~282	~27	–	–	–	–
–	CN(C)C(=O)c1cc(C2CCCN2c2cccc(F)c2)c2oc(N3CCOCC3)cc(=O)c2c1 (centres unmarked) [Example 2.00, 8-(1-(3-fluorophenyl)pyrrolidin-2-yl)-N,N-dimethyl-2-morpholino-4-oxo-4H-chromene-6-carboxamide]	~9	~12	~2	9	12	–	–
–	O=C(c1cc([C@H]2CCCN2c2cc(F)cc(F)c2)c2oc(N3CCOCC3)cc(=O)c2c1)N1CCOCC1 [Example 1.03b, 8-[(2R)-1-(3,5-difluorophenyl)pyrrolidin-2-yl]-6-(morpholine-4-carbonyl)-2-morpholino-chromen-4-one]	~7	~9	~1	–	9	7	~7
–	O=C(c1cc(C2CCCN2c2cc(F)cc(F)c2)c2oc(N3CCOCC3)cc(=O)c2c1)N1CCOCC1 (racemic) [Example 1.03, 8-(1-(3,5-difluorophenyl)pyrrolidin-2-yl)-6-(morpholine-4-carbonyl)-2-morpholino-4H-chromen-4-one]	~12	~22	~2	–	22	12	–
